What was measured:
[1] = system: mouse peritoneal macrophages; experiment: LPS-induced cytokine release from peritoneal macrophages; assay type: cell-based; details: pre-treatment 1 μM, 4 h; LPS 5 μg/mL, 7 h
Procedure: All PS-lipase substrate assays were performed on either 18:0-18:2 PS (Avanti Catalog #840063) or 16:0-18:1 PS (Avanti Catalog #840034). 17:1 FFA (Sigma-Aldrich #H8896) was used an internal standard for substrate assays, as well as lipidomic analysis. 2-AG-d5 (Catalog #362162) and PGE2-d9 (Catalog #10581) were purchased from Cayman Chemicals. COLO205, MCF7, K562 and HEK293T cells were purchased from ATCC. All full-length cDNA constructs coding for serine hydrolases ABHD16A, and ABHD12 were purchased from Open Biosystems (GE Healthcare), and all primers were obtained from Integrated DNA Technologies. All DNA sequencing was performed by Eton Biosciences Inc. All cytokine analysis was done using single analyte ELISA kits purchased from R&D Systems, Mouse TNF-α (Catalog # DY410), Mouse IL-6 (Catalog # DY406), and Mouse IL-1β (Catalog # DY401). All tissue culture media and supplements (RPMI 1640, DMEM, and Trypsin) were purchased from Caisson Labs, and SILAC RPMI was purchased from Thermo Scientific. […]
Peritoneal macrophages were elicited and harvested from mice according to the standard protocols available from LIPID MAPS (See http://www.lipidmaps.org/protocols/PP0000001400.pdf and http://www.lipidmaps.org/protocols/PP0000001500.pdf). […] Cell counts measured using a Bio-Rad TC10 automated cell counter, and equal numbers of cells (2×10^6) were plated in 10 cm tissue culture dishes. […]

[2] = system: human lymphoblast cell lines (LCLs); experiment: Lyso-PS content of treated LCLs; assay type: cell-based; details: 1 μM, 4 h
Procedure: ABHD16A^+/+, ABHD16A^+/+, and ABHD16A^−/− littermates of 10 weeks age were anaesthetized by isoflurane and killed by decapitation. The tissues (brains were sliced laterally into two hemispheres; entire spinal cord) were harvested, weighed, and immediately submerged in liquid N2. Tissues (one half brain or entire spinal cord) were then Dounce-homogenized in 8 mL of 2:1:1 (vol/vol/vol) CHCl3: MeOH: PBS containing the internal standard mix (1 nmol 17:1 FFA, and 100 pmol each of 17:1 lyso-PS, 17:0-20:4 PS, 17:1 lyso-PC, 17:0-20:4 PC, 17:0-20:4 PE and 50 pmol of 2-AG-d5). Homogenates were transferred to a glass vial and centrifuged at 2800×g for 10 minutes to separate the two phases. The organic phase (bottom) was removed, 200 μL of formic acid was added to acidify the aqueous homogenate (to enhance extraction of phospholipids), and CHCl3 was added to make up 8 mL volume. […]
All the metabolites analyzed in this study were quantified using the multiple reaction monitoring (MRM) methods the targeted LC/MS analysis was done using an Agilent Technologies 6460 Triple Quad LC/M with an Agilent Technologies 1290 Infinity series quaternary pump. All data was collected using the LC/MS Data Acquisition mode of the Mass Hunter Workstation Software version B.05.00 build 5.0.5027.0 SP, and analyzed using the Quantitative Analysis mode of the same software. […]

SMILES: CCCCCCCCCCCCCC1OC(=O)/C1=C\CCCCC(N)=O (stereo not drawn) [KC01, (Z)-6-(2-oxo-4-tridecyloxetan-3-ylidene)hexanamide]
- LPS-induced cytokine release [1]: significantly blunted
- secreted lyso-PSs ([2]; ABHD12-null LCL): significantly lowered
- cellular lyso-PSs ([2]; all LCLs): decreased cellular lyso-PSs
